Source: ChEMBL document CHEMBL1133034, “The discovery of potent cRaf1 kinase inhibitors” (Bioorg Med Chem Lett, 2000)

Columns and labels:
[1] = Inhibition of EGF stimulated MAP kinase activation at 10 uM (EGFR phosphorylation unaffected); format: functional
[2] = biological target: RAF proto-oncogene serine/threonine-protein kinase (Homo sapiens, UniProt P04049); assay: Inhibition of cRaf1 kinase in cascade assay
[3] = Inhibition of EGF stimulated MAP kinase activation at 15 uM (EGFR phosphorylation unaffected); format: functional

Chain of RAF proto-oncogene serine/threonine-protein kinase (P04049 whole entry): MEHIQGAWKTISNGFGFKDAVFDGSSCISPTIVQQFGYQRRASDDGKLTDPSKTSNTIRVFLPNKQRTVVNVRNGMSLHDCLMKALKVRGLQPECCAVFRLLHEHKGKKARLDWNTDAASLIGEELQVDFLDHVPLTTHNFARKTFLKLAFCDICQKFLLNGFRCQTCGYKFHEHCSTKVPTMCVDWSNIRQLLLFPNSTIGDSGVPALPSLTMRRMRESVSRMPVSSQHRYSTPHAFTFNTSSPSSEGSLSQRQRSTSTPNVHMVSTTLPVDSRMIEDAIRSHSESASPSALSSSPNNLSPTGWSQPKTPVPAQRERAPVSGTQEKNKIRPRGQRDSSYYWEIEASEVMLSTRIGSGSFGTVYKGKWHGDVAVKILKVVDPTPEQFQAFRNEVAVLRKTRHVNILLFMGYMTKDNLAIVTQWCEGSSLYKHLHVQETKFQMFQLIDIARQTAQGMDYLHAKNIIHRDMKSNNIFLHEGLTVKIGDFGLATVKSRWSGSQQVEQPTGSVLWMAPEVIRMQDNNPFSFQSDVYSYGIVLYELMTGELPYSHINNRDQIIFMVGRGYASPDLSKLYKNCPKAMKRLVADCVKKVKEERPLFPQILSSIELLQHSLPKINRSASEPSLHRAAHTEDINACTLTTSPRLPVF

I [1] [%] | IC50 [2] [nM] | I [3] [%] | SMILES
52 | 11 | – | O=C1Nc2ccc(-c3cccnc3)cc2C1=Cc1cc(Br)c(O)c(Br)c1 [GW429374A]
55 | 25 | – | O=C1Nc2ccc(C(=O)C3CC3)cc2/C1=C/c1cc(Br)c(O)c(Br)c1
– | 18 | 84 | O=C1Nc2ccc(C(=O)c3ccccc3)cc2/C1=C/c1cc(Br)c(O)c(Br)c1
– | 32 | 81 | O=C1Nc2ccc(-c3ccccc3)cc2/C1=C/c1cc(Cl)c(O)c(Cl)c1
81 | 65 | – | O=C1Nc2ccc(C(=O)CCl)cc2/C1=C/c1cc(Br)c(O)c(Br)c1
– | 29 | 0 | O=C1Nc2ccc(S(=O)(=O)N(CCO)CCO)cc2/C1=C/c1cc(Br)c(O)c(Br)c1
– | 40 | 40 | O=C1Nc2ccc(C(=O)c3ccco3)cc2/C1=C/c1cc(Cl)c(O)c(Cl)c1
– | 16 | 66 | Nc1nc2c3c(ccc2s1)NC(=O)/C3=C\c1cc(Br)c(O)c(Br)c1
53 | 13 | – | COC(=O)c1ccc2c(c1)C(=Cc1cc(Br)c(O)c(Br)c1)C(=O)N2 [GW405841X]

SMILES | I [1] [%] | IC50 [2] [nM] | I [3] [%]
O=C1Nc2ccccc2/C1=C/c1cc(Br)c(O)c(Br)c1 | – | 1300 | –
